Test results reported in the OPERA property sets (Mansouri et al. 2018).

SMILES	logP
COc1ccccc1N1CCN(CCNC(=O)c2ccc(F)cc2)CC1	2.5
COc1ccccc1N1CCN(CCCOc2ccc(F)cc2)CC1	4.1
COc1ccccc1N1CCN(CCCC(=O)c2ccc(F)cc2)CC1	3.6
COc1ccccc1N1CCN(CCNC(=O)c2ccc[nH]2)CC1	1.6
COc1ccccc1N1CCN(CCNC(=O)c2ccncn2)CC1	1.5
COc1ccccc1N1CCN(CCNC(=O)c2ccccc2)CC1	2.2
COc1ccccc1N1CCN(CCNC(=N)C2CCCCC2)CC1	3.4
COc1ccccc1N1CCN(CCNC(=O)C2CCCCC2)CC1	2.8

Results, then the compound that gave them:

logP	SMILES
3.7	COc1ccccc1N1CCN(CCNC(=S)C2CCCCC2)CC1
0.5	COc1ccccc1N1CCN(CCNC(C)=O)CC1
3.4	COc1ccccc1N1CCN(CCCC(O)c2ccc(F)cc2)CC1 (configuration not stated)
1.2	COc1ccccc1N1CCN(CCNC(=O)c2cccnc2)CC1
1.6	COc1ccccc1N1CCN(CCNC(=O)c2ccco2)CC1
4.7	COc1ccccc1N1CCN(CCC=Cc2ccc(F)cc2)CC1
4.8	COc1ccccc1N1CCN(CCCCc2ccc(F)cc2)CC1
2	COc1ccccc1N1CCN(CCNC(=O)c2cccs2)CC1
3.6	COc1ccccc1N1CCN(CCOCc2ccc(F)cc2)CC1
